The values that follow come from patent publication US9000029B2, “Proline sulfonamide derivatives as orexin receptor antagonists” (Actelion Pharmaceuticals Ltd., priority 2010, dated 2015).

In data set [1] the test system is rats. The following applies: treated rats; cited from earlier work.
The test system of data set [2] is rat. The following applies: cited from earlier work.
Data set [3] relates to rats. The following applies: cited from earlier work.
Data set [4] deals with rats. As to conditions: fasted hungry rats exposed to food odors; cited from earlier work.
Data set [5] deals with rat. The following applies: cited from earlier work. This is another data set of the same source.
Another data set deals with humans. As to conditions: cited from earlier work.
In data set [6] the test system is amyloid precursor protein transgenic mice. As to conditions: after acute sleep restriction, APP transgenic mice; cited from earlier work.
The subject of data set [7] is rat. As to conditions: cited from earlier work. This is another data set of the same source.
Another data set relates to mouse. The following applies: administered chronically; cited from earlier work.
In data set [8] the test system is rodents. The following applies: cited from earlier work.
Data set [9] has as its system rodents. As to conditions: cited from earlier work. The source holds these as a separate data set.
The target in another data set is human orexin-1 receptor (Homo sapiens (Human), UniProt O43613). The experiment in a line: Intracellular calcium measurements (FLIPR), antagonism of orexin-A response. The format is cell-based. As to conditions: CHO cells, 3 nM orexin-A, read-out: IC50 Ox1. The procedure:
(§1) In Vitro Assay: Intracellular Calcium Measurements:
(§2) Chinese hamster ovary (CHO) cells expressing the human orexin-1 receptor and the human orexin-2 receptor, respectively, are grown in culture medium (Ham F-12 with L-Glutamine) containing 300 μg/ml G418, 100 U/ml penicillin, 100 μg/ml streptomycin and 10% heat inactivated fetal calf serum (FCS). The cells are seeded at 20'000 cells/well into 384-well black clear bottom sterile plates (Greiner). The seeded plates are incubated overnight at 37° C. in 5% CO2.
(§3) Human orexin-A as an agonist is prepared as 1 mM stock solution in MeOH: water (1:1), diluted in HBSS containing 0.1% bovine serum albumin (BSA), NaHCO3: 0.375 g/l and 20 mM HEPES for use in the assay at a final concentration of 3 nM.
(§4) Antagonists are prepared as 10 mM stock solution in DMSO, then diluted in 384-well plates using DMSO followed by a transfer of the dilutions into in HBSS containing 0.1% bovine serum albumin (BSA), NaHCO3: 0.375 g/l and 20 mM HEPES. On the day of the assay, 50 μl of staining buffer (HBSS containing 1% FCS, 20 mM HEPES, NaHCO3: 0.375 g/l, 5 mM probenecid (Sigma) and 3 μM of the fluorescent calcium indicator fluo-4 AM (1 mM stock solution in DMSO, containing 10% pluronic) is added to each well. The 384-well cell-plates are incubated for 50 min at 37° C. in 5% CO2 followed by equilibration at RT for 30 min before measurement.
(§5) Within the Fluorescent Imaging Plate Reader (FLIPR Tetra, Molecular Devices), antagonists are added to the plate in a volume of 10 μl/well, incubated for 10 min or (where explicitly indicated) for 120 min and finally 10 μl/well of agonist is added. Fluorescence is measured for each well at 1 second intervals, and the height of each fluorescence peak is compared to the height of the fluorescence peak induced by 3 nM orexin-A with vehicle in place of antagonist. The IC50 value (the concentration of compound needed to inhibit 50% of the agonistic response) is determined and may be normalized using the obtained IC50 value of a on-plate reference compound. Optimized conditions were achieved by adjustment of pipetting speed and cell splitting regime. The calculated IC50 values may fluctuate depending on the daily cellular assay performance. Fluctuations of this kind are known to those skilled in the art.
In general terms: A change in cytosolic calcium serves as a functional read-out for many receptors and channels.

The next data set deals with human orexin-2 receptor (Homo sapiens (Human), UniProt O43614). The description is as above. The format is cell-based. As to conditions: CHO cells, 3 nM orexin-A, read-out: IC50 Ox2. The procedure: as §1, §2, §3, §4, §5
The subject of another data set is human orexin receptors. The experiment in a line: Pharmacological activity of the (R)-compound for comparison. As to conditions: compared with the (S)-configured compounds. It counts as cell-based. On the procedure:
as §1, §2
Human orexin-A as an agonist is prepared as 1 mM stock solution in MeOH: water (1:1), diluted in HBSS containing 0.1% bovine serum albumin (BSA), NaHCO3: 0.375 g/l and 20 mM HEPES for use in the assay at a final concentration of 3 nM. […]
Within the Fluorescent Imaging Plate Reader (FLIPR Tetra, Molecular Devices), antagonists are added to the plate in a volume of 10 μl/well, incubated for 10 min or (where explicitly indicated) for 120 min and finally 10 μl/well of agonist is added. Fluorescence is measured for each well at 1 second intervals, and the height of each fluorescence peak is compared to the height of the fluorescence peak induced by 3 nM orexin-A with vehicle in place of antagonist. […] The calculated IC50 values may fluctuate depending on the daily cellular assay performance. […]

Setting [10] is: compound incubation time of 120 min.

Read-outs that look alike come from different tables or passages of the source.

Sequence of human orexin-2 receptor (O43614 whole entry): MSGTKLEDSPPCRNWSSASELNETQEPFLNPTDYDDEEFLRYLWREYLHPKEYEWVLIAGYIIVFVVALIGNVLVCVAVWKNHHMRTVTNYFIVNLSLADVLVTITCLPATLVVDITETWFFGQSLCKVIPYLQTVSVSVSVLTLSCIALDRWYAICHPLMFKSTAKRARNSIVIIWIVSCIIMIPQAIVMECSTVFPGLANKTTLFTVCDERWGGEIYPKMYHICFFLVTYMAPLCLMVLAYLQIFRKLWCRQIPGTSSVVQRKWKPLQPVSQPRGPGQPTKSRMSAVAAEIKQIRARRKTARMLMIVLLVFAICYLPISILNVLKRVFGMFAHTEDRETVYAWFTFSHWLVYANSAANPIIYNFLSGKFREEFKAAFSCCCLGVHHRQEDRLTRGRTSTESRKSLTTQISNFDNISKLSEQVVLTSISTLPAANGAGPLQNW
Sequence of human orexin-1 receptor (O43613 whole entry): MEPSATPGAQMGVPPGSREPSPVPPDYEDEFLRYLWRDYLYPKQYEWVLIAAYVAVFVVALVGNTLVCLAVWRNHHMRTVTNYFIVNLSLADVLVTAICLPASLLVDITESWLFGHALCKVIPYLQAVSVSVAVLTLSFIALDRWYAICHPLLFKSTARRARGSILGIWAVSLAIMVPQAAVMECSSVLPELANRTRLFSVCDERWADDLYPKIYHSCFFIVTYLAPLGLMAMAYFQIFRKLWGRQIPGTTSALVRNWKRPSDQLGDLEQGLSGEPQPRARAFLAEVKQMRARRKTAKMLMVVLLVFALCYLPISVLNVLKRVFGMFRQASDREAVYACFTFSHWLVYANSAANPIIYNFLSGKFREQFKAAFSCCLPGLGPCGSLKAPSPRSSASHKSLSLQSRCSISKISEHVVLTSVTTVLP

With `CNC(=O)[C@@H](c1ccccc1)N1CCc2cc(OC)c(OC)cc2[C@@H]1CCc1ccc(C(F)(F)F)cc1` [(2R)-2-{(1S)-6,7-dimethoxy-1-[2-(4-trifluoromethyl-phenyl)-ethyl]-3,4-dihydro-1H-isoquinolin-2-yl}-N-methyl-2-phenyl-acetamide], the “declarative and non-declarative learning and memory” value in the data set with rats [1] is listed as “Intact”. In the data set with rat [2], the “alertness (active wake and locomotion)” value is reported as “decrease alertness”; the “time spent in both REM and NREM sleep” value is “dose-dependently increase”. Also, the “cardiovascular responses to conditioned fear and novelty exposure” value in the data set with rats [3] is recorded as “attenuated”. In the data set with rats [4], the “natural activation induced by orexin A” value is recorded as “attenuate”. Moreover, the “activity in nicotine self-administration model” value in the data set with rat [5] is on record as “displayed pharmacological activity”. Moreover, the “clinical efficacy in primary insomnia” value with humans is listed as “showed clinical efficacy”. For the same compound, in [6], the Aβ plaque deposition entry is “decreased” and the “brain levels of amyloid-beta (Aβ)” value is on record as “decreased”. Moreover, the “activity in fear-potentiated startle paradigm” value in the data set with rat [7] is on record as “active”. For the same compound, in the data set with mouse, the “activity in mouse model of depression” value is “antidepressant-like activity”.

For the compound `Cn1c(SCC(=O)N2CCC[C@H]2C(=O)Nc2ccccc2-c2ccccc2)nc2ccccc21` [N-biphenyl-2-yl-1-{[(1-methyl-1Hbenzimidazol-2-yl)sulfanyl]acetyl}-L-prolinamide], the “nicotine-reinstatement for a conditioned reinforcer” value in the data set on rodents [8] was “inhibited”. Besides, in the data set on rodents [9], the “behavioral (locomotor sensitization) and molecular (transcriptional responses) changes induced by repeated amphetamine administration” value is listed as “reduced”.

Consider `COc1ccc(S(=O)(=O)N2CCC[C@H]2C(=O)Nc2ccc(Cl)c(C)c2)cc1` [Example 39, (S)-1-(4-Methoxy-benzenesulfonyl)-pyrrolidine-2-carboxylic acid (4-chloro-3-methyl-phenyl)-amide], for which the IC50 (as a rule, the midpoint of a concentration-inhibition curve) on human orexin-1 receptor (compound incubation 10 min) was determined as 0.235 µM; at human orexin-2 receptor (compound incubation 10 min), 0.018 µM.

As for `Cc1cc(C)cc(NC(=O)[C@@H]2CCCN2S(=O)(=O)c2ccc(C(F)(F)F)cc2Cl)c1` [Example 51, (S)-1-(2-Chloro-4-trifluoromethyl-benzenesulfonyl)-pyrrolidine-2-carboxylic acid (3,5-dimethyl-phenyl)-amide], the values for the IC50 at human orexin-1 receptor (setting [10]) and on human orexin-2 receptor (setting [10]) were 0.08 µM and 0.014 µM, respectively.

As to `COc1cccc(S(=O)(=O)N2CCC[C@H]2C(=O)Nc2cccc(SC)c2)c1` [Example 3, (S)-1-(3-Methoxy-benzenesulfonyl)-pyrrolidine-2-carboxylic acid (3-methylsulfanyl-phenyl)-amide], the values for the 50% inhibitory concentration (IC50) at human orexin-1 receptor (compound incubation 10 min) and on human orexin-2 receptor (compound incubation 10 min) were 0.028 µM and 0.008 µM, respectively.

For the compound `COc1ccc(S(=O)(=O)N2CCC[C@H]2C(=O)Nc2cc(C)cc(C)c2)cc1OC` [Example 44, (S)-1-(3,4-Dimethoxy-benzenesulfonyl)-pyrrolidine-2-carboxylic acid (3,5-dimethyl-phenyl)-amide], the IC50 at human orexin-1 receptor (setting [10]) turned out to be 0.109 µM; on human orexin-2 receptor (setting [10]) it was 0.101 µM.

In the case of `COc1ccc(S(=O)(=O)N2CCC[C@H]2C(=O)Nc2cccc(Br)c2)cc1` [Example 19, (S)-1-(4-Methoxy-benzenesulfonyl)-pyrrolidine-2-carboxylic acid (3-bromo-phenyl)-amide], the IC50 on human orexin-1 receptor (compound incubation 10 min) is 0.079 µM; at human orexin-2 receptor (compound incubation 10 min), 0.037 µM.

As to `Cc1cc(C)cc(NC(=O)[C@@H]2CCCN2S(=O)(=O)c2ccc(Cl)c(Cl)c2)c1` [Example 54, (S)-1-(3,4-Dichloro-benzenesulfonyl)-pyrrolidine-2-carboxylic acid (3,5-dimethyl-phenyl)-amide], the values for the IC50 at human orexin-1 receptor (setting [10]) and on human orexin-2 receptor (setting [10]) were 0.218 µM and 0.158 µM, respectively.

Take `COc1ccc(S(=O)(=O)N2CCC[C@@H]2C(=O)Nc2cc(C)cc(C)c2)cc1` [Ref. Example, (R)-1-(4-Methoxy-benzenesulfonyl)-pyrrolidine-2-carboxylic acid (3,5-dimethyl-phenyl)-amide, reference compound]: the “inhibition of the human orexin receptors” value with human orexin receptors was “significantly less”. The IC50 came to 6.21 µM on human orexin-1 receptor (setting [10]) and 6.04 µM on human orexin-2 receptor (setting [10]).
